The values below come from ChEMBL document CHEMBL4311933, “Biochemical and microbiological evaluation of N-aryl urea derivatives against mycobacteria and mycobacterial hydrolases” (Medchemcomm, 2019).

≈ marks a conversion by molar mass, not a printed value. Calls of active or inactive are those of the source. The calls are words filed in the database; no cut-off is given here. A value given as a limit tells only on which side of the number the result lay.

Series [1] deals with T1, Carboxylesterase/lipase Culp6 (Mycobacterium tuberculosis (strain ATCC 25618 / H37Rv), UniProt O53581).
T1 sequence (O53581 whole entry): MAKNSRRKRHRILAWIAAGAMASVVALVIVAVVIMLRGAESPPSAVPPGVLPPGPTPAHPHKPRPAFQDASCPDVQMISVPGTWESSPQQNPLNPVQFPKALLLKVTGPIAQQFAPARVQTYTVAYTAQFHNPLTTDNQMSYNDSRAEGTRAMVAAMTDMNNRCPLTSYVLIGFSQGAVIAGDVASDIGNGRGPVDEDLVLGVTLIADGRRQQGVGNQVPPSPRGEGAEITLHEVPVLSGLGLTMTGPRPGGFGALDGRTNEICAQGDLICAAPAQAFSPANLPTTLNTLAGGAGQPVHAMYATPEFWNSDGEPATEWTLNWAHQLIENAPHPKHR
Description: Inhibition of recombinant Mycobacterium tuberculosis H37Rv ATCC 25618 Rv3802c expressed in Escherichia coli T7 assessed as residual activity by measuring hydrolysis of resorufin butyrate at 500 uM using resorufin butyrate as substrate preincubated for 15 mins followed by substrate addition relative to control. As to conditions: for activity at 500 µM: read-out: Activity.

Series [2] addresses T1, Carboxylesterase/lipase Culp6. Description: Inhibition of recombinant Mycobacterium tuberculosis H37Rv ATCC 25618 Rv3802c expressed in Escherichia coli T7 assessed as residual activity by measuring hydrolysis of resorufin butyrate at 200 uM using resorufin butyrate as substrate preincubated for 15 mins followed by substrate addition by relative to control. The conditions noted are these: read-out: Activity.

The subject of series [3] is Mycobacterium tuberculosis H37Rv. The experiment in a line: Inhibition of recombinant Mycobacterium tuberculosis H37Rv ATCC 25618 mycolyltransferase expressed in Escherichia coli T7 assessed as residual activity by measuring hydrolysis of resorufin butyrate at 200 uM using resorufin butyrate as substrate preincubated for 15 mins followed by substrate addition by fluorimetric assay relative to control.

The test system of series [4] is Mycobacterium tuberculosis. The experiment in a line: Antimycobacterial activity against Mycobacterium tuberculosis H37Rv mc2 6206 after 7 days by resazurin microtiter assay. It is filed as functional. The conditions noted are these: H37Rv mc2 6206, 168 h.
The subject of series [5] is Mycobacterium tuberculosis. The experiment in a line: Antimycobacterial activity against Mycobacterium tuberculosis H37Ra ATCC 25177 after 7 days by resazurin microtiter assay. It is filed as functional. As to conditions: H37Ra ATCC 25177, 168 h. (In general: Alamar Blue is a resazurin reagent that responds to reducing activity.)
In series [6] the test system is Mycobacteroides abscessus. Description: Antimycobacterial activity against Mycobacterium abscessus ATCC 19977 after 7 days by resazurin microtiter assay. It is filed as functional. As to conditions: ATCC 19977, 168 h.
For series [7], the system named is Mycolicibacterium smegmatis. The experiment in a line: Antimycobacterial activity against Mycobacterium smegmatis mc2 155 after 7 days by resazurin microtiter assay. Type of series: functional. As to conditions: MC2 155, 168 h.
For another series, the system named is L929. The experiment in a line: Cytotoxicity against murine L929 assessed as reduction in cell viability after 24 hrs by MTT assay. It is filed as cell-based. As to conditions: Mus musculus, L929, 24 h.
Series [8] can be described thus: Selectivity index, ratio of IC50 for murine L929 cells to MIC for Mycobacterium tuberculosis H37Rv mc2 6206. Type of series: toxicity. As to conditions: mouse, read-out: Selectivity Index.
The nature of series [9]: Selectivity index, ratio of IC50 for murine L929 cells to MIC for Mycobacterium tuberculosis H37Ra ATCC 25177. As to conditions: mouse, read-out: Selectivity Index. It is filed as toxicity.
Series [10] deals with Mycobacterium tuberculosis H37Rv. The experiment in a line: Inhibition of recombinant Mycobacterium tuberculosis H37Rv ATCC 25618 mycolyltransferase expressed in Escherichia coli T7 at 500 uM using resorufin butyrate as substrate preincubated for 15 mins followed by substrate addition by fluorimetric assay.
Series [11] concerns the target T1, Carboxylesterase/lipase Culp6. The experiment in a line: Inhibition of recombinant Mycobacterium tuberculosis H37Rv ATCC 25618 Rv3802c cutinase expressed in Escherichia coli T7 at 500 uM using resorufin butyrate as substrate preincubated for 15 mins followed by substrate addition relative to control.
Series [12] has the same target. Description: Inhibition of recombinant Mycobacterium tuberculosis H37Rv ATCC 25618 Rv3802c cutinase expressed in Escherichia coli T7 assessed as inhibition constant using resorufin butyrate as substrate preincubated for 15 mins followed by substrate addition.

Regarding `O=C(NCC1CCCCC1)Nc1ccc(Br)cc1`, the activity at 500 µM in [1] came to 100%.
`O=C(NCc1ccco1)n1nnc2ccccc21`: the activity at 200 µM in [2] was found to be 44%. Also, in series [3], the Activity came out at 80%.
For the compound `O=C(Nc1cc(F)cc(F)c1)N(Cc1ccc(F)cc1)Cc1ccco1`, in series [2], the activity at 200 µM was determined as 100%.
On to `O=C(NCc1ccco1)n1ccnn1`, for which the activity at 200 µM in series [2] was 72.5%. In addition, the Activity in [3] was 14%.
On to `O=C(NCC1CCCCC1)Nc1ccc(F)cc1`, for which the activity at 500 µM in [1] is 66%.
With `O=C(NCC1CCCCC1)Nc1ccc(C(F)(F)F)cc1`, in series [1], the activity at 500 µM is 83.6%. For the same compound, the MIC (commonly the least concentration at which growth counts as inhibited) in series [4] was 1.5 µM (≈ 0.45 µg/mL); in [5] it was 12.5 µM (≈ 3.75 µg/mL); in series [6], more than 100 µM; in series [7] it was more than 100 µM. Besides, in the series with L929, the IC50 (commonly the concentration that inhibits the measured activity by half) was determined as 56 µM. The selectivity ratio in [8] and in [9] was more than 20 in each case.
Take `O=C(NCc1ccco1)Nc1ccc(C(F)(F)F)cc1`: in series [1], the activity at 500 µM is 82%.
In the case of `O=C(NCC1CCCCC1)n1nnc2ccccc21`, in series [2], the activity at 200 µM amounted to 43%.
With `O=C(NCC1CCCCC1)Nc1cc(F)cc(F)c1`, the activity at 500 µM in [1] was determined as 72.5%. Also, the MIC in [4] was 3.12 µM (≈ 0.837 µg/mL); in series [5], 25 µM (≈ 6.71 µg/mL); in series [6] it was 25 µM (≈ 6.71 µg/mL); in series [7], 62.5 µM (≈ 16.8 µg/mL). Also, the IC50 with L929 is 70 µM. Also, the selectivity ratio in [8] and in series [9] was more than 20 throughout.
In the case of `O=C(NCc1nc2ccccc2[nH]1)Nc1cc(F)cc(F)c1`, the activity at 200 µM in series [2] came out at 20%.
For `O=C(NCCc1ccccc1)Nc1ccccc1`, in series [1], the activity at 500 µM was 73.1%. The inhibition (in general, the relative decrease from the control value, in per cent) in series [10] is “inactive”.
For `CSc1nncn1C(=O)NCC1CCCCC1`, in series [2], the activity at 200 µM is 40%.
Consider `O=C(NCc1ccco1)Nc1cc(F)cc(F)c1`, for which the activity at 500 µM in series [1] was determined as 13%. For the same compound, in series [11], the inhibition at 500 µM amounted to 88%. The Ki – broadly, a dissociation constant, usually derived from enzyme kinetics or from competition with a known ligand – in series [12] worked out at 5.2 µM.
On to `O=C(Nc1ccccc1)NC1CCCC1`, for which, in series [1], the activity at 500 µM amounted to 56.2%. Further, the inhibition entry in [10] is “inactive”.
`O=C(NCC1CCCCC1)Nc1ccc([N+](=O)[O-])cc1`: the Activity entry in series [1] (500 µM) is listed as “Active”. The MIC in series [4] was 3.12 µM (≈ 0.865 µg/mL); in series [5], 25 µM (≈ 6.93 µg/mL); in [6] it was more than 100 µM; in series [7], 15.6 µM (≈ 4.33 µg/mL). In the series on L929, the IC50 came out at 57 µM. Further, the selectivity ratio in [8] and in series [9] was more than 20 in each case.
`O=C(NCc1ccco1)Nc1ccccc1`: the activity at 500 µM in series [1] stood at 38.2%. For the same compound, in series [10], the inhibition result is “inactive”.
Take `O=C(NCc1cccs1)Nc1ccccc1`: the activity at 500 µM in series [1] turned out to be 50.5%. In addition, the inhibition entry in series [10] was “inactive”.
Consider `O=C(Nc1ccccc1)NC1CCCCC1`, for which the activity at 500 µM in [1] came to 84.3%. Further, the inhibition entry in [10] was “inactive”.
For `O=C(NCC1CCCCC1)Nc1ccccc1`, the activity at 500 µM in series [1] worked out at 53%. The inhibition result in series [10] was “inactive”.
Consider `O=C(NCc1ccco1)Nc1ccc(F)cc1`, for which, in [1], the activity at 500 µM is 54.9%.
Turning to `O=C(Nc1cc(F)cc(F)c1)N(Cc1ccco1)Cc1ccco1`, in series [2], the activity at 200 µM came to 100%.
Regarding `O=C(Nc1ccccc1)N1CCCCC1`, in series [1], the activity at 500 µM is 43%. Moreover, the inhibition entry in series [10] was “inactive”.
Regarding `O=C(NCc1ncc[nH]1)Nc1cc(F)cc(F)c1`, the activity at 200 µM in [2] is 100%.
